Test results reported in US10231954B2, “Neurodegenerative therapies” (LYTIX BIOPHARMA AS, priority 2014, dated 2019).
Where two headings read alike, the source gives them in different places.

Experiments:
Assay type in all cases: biochemical
[1] = molecular target: JNK1 (Homo sapiens, UniProt P45983); assay: Kinase profiling JNK1; conditions: for remaining activity at 100 µM: read-out: residual kinase activity, JNK1
Text: (§1) Any value less that 25 is considered to be highly significant inhibition.

[2] = molecular target: ROCK 2 (Homo sapiens, UniProt O75116); assay: Kinase profiling ROCK 2; conditions: for remaining activity at 100 µM: read-out: residual kinase activity, ROCK 2
Text: as §1

[3] = molecular target: PKCa (Homo sapiens, UniProt P17252); assay: Kinase profiling PKCa; conditions: for remaining activity at 100 µM: read-out: residual kinase activity, PKCa
Text: as §1

[4] = molecular target: T1, PKD1 (Homo sapiens, UniProt Q15139); assay: Kinase profiling PKD1; conditions: for remaining activity at 100 µM: read-out: residual kinase activity, PKD1
T1 sequence (Q15139 1-912): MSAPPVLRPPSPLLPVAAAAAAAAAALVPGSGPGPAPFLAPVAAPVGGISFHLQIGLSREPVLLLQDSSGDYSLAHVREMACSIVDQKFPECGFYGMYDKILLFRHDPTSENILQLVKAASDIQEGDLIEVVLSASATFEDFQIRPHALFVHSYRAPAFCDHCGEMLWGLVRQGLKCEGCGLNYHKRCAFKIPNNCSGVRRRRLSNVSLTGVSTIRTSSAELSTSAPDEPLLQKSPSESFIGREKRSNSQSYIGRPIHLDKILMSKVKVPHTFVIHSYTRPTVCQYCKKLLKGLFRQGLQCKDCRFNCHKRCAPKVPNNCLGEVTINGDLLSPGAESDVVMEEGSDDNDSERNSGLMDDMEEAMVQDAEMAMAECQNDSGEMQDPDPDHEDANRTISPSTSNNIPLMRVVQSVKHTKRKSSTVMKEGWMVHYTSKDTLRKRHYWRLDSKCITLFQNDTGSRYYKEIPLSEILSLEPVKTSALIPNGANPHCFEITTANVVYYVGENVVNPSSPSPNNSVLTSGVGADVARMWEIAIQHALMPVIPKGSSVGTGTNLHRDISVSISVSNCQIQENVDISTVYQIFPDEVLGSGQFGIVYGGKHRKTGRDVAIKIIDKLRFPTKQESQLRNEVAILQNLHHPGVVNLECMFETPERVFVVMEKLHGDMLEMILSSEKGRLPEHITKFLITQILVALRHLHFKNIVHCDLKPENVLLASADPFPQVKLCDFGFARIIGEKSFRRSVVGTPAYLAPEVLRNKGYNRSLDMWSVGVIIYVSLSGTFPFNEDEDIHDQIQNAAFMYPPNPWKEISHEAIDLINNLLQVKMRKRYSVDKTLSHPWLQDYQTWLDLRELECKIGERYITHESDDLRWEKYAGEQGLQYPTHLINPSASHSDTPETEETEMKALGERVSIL
Text: as §1

[5] = molecular target: T2, LKB1 (Homo sapiens, UniProt Q15831); assay: Kinase profiling LKB1; conditions: for remaining activity at 100 µM: read-out: residual kinase activity, LKB1
T2 sequence (Q15831 1-433): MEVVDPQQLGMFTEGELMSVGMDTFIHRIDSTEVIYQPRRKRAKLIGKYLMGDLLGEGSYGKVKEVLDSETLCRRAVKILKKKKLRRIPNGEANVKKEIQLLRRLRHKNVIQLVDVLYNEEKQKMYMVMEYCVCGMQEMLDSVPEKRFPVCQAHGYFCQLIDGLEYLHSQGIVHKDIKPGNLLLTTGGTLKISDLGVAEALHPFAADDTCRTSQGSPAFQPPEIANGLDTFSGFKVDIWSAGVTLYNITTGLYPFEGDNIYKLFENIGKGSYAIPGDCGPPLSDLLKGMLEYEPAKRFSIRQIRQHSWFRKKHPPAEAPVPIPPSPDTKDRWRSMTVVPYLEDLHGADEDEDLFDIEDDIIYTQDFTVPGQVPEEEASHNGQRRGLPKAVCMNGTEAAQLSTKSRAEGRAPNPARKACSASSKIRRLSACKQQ
T2 sequence (Q7RTN6 1-431 partner): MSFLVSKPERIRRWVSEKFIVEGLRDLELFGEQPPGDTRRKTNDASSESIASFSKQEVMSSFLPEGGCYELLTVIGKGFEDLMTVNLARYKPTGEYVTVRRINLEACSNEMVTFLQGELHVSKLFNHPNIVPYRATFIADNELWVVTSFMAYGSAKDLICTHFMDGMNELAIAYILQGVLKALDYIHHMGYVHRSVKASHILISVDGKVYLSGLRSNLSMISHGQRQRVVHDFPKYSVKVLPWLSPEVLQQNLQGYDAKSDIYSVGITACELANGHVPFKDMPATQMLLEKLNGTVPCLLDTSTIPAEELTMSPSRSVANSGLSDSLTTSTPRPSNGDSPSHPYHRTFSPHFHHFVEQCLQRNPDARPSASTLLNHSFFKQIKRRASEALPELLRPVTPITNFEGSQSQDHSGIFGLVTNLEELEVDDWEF
T2 sequence (Q9Y376 1-341 partner): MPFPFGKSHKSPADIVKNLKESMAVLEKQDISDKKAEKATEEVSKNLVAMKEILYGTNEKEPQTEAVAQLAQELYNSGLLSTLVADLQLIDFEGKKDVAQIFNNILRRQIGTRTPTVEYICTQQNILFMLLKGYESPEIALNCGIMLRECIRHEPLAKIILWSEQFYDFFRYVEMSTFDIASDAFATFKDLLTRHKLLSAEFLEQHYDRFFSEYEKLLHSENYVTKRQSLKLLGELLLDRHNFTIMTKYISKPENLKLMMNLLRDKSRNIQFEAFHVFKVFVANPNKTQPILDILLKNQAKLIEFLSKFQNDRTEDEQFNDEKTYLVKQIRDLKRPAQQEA
Text: as §1

[6] = system: CK2; assay: Kinase profiling CK2
Text: as §1

[7] = molecular target: NEK6 (Homo sapiens, UniProt Q9HC98); assay: Kinase profiling NEK6; conditions: for remaining activity at 100 µM: read-out: residual kinase activity, NEK6
Text: as §1

[8] = molecular target: PIM1 (Homo sapiens, UniProt P11309); assay: Kinase profiling PIM1; conditions: for remaining activity at 100 µM: read-out: residual kinase activity, PIM1
Text: as §1

[9] = molecular target: PAK4 (Homo sapiens, UniProt O96013); assay: Kinase profiling PAK4; conditions: for remaining activity at 100 µM: read-out: residual kinase activity, PAK4
Text: as §1

[10] = 100 micromolar inhibitor concentration, 100 is no change
[11] = 100 micromolar inhibitor, 100 = no change

Chain of PAK4 (O96013 whole entry, species assumed): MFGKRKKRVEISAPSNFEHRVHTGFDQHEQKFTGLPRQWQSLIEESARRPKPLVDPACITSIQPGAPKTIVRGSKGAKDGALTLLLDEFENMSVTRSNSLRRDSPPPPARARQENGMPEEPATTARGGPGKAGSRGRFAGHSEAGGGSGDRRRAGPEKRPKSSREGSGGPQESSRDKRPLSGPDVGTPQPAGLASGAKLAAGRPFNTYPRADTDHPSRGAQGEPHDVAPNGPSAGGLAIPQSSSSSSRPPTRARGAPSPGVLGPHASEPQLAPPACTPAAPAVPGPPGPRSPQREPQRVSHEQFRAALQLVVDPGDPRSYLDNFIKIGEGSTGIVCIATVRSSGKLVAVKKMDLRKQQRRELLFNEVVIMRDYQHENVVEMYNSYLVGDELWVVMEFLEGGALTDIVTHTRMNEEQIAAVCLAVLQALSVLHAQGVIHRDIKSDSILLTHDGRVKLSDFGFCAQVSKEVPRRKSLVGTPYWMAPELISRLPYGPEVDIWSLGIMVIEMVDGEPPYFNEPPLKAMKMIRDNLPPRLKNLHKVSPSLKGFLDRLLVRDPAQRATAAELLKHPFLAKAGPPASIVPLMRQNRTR
Chain of ROCK 2 (O75116 whole entry, species assumed): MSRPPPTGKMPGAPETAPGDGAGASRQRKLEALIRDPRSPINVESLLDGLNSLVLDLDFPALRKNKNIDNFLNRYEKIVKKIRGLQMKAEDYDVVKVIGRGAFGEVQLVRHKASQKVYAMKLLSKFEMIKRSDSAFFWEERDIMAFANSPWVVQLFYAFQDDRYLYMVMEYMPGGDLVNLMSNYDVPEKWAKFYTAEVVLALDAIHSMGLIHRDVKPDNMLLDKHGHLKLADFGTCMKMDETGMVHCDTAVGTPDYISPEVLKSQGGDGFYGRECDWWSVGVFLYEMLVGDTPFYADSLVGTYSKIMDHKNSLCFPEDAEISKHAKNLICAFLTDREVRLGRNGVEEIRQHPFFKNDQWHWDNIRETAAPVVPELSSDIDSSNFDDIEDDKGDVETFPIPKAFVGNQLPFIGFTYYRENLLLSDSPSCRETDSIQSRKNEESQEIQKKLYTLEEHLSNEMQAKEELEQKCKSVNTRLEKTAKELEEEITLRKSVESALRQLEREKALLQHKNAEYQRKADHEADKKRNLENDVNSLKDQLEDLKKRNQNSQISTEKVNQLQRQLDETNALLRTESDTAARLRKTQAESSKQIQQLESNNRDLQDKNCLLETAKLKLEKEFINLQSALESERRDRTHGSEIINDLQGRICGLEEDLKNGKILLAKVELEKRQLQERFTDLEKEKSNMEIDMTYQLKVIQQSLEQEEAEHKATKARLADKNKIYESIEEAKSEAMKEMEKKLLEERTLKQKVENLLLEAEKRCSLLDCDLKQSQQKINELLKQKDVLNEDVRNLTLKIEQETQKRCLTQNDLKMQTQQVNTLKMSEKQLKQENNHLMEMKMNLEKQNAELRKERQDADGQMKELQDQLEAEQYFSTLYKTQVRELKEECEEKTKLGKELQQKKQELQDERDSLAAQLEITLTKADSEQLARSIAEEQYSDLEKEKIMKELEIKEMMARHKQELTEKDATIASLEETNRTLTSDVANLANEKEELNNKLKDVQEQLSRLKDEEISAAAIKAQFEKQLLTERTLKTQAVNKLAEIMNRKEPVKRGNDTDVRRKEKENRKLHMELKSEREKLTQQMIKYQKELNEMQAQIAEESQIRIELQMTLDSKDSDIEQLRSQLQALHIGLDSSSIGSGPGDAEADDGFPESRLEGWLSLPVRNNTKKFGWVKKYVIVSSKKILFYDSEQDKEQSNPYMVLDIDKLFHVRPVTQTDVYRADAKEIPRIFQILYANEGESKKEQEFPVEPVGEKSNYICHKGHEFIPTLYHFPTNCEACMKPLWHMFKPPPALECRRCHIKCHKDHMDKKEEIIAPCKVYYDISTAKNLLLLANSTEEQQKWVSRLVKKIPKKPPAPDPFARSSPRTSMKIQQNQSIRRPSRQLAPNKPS
Chain of PIM1 (P11309 whole entry, species assumed): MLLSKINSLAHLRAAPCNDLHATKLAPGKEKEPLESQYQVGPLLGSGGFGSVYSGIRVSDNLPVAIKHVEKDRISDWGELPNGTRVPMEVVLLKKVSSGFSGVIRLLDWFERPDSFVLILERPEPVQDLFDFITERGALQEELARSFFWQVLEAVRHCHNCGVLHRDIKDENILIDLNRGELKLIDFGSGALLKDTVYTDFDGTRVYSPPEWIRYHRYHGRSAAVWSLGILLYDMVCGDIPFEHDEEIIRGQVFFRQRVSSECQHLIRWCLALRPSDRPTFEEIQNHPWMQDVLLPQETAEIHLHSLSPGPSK
Chain of NEK6 (Q9HC98 whole entry, species assumed): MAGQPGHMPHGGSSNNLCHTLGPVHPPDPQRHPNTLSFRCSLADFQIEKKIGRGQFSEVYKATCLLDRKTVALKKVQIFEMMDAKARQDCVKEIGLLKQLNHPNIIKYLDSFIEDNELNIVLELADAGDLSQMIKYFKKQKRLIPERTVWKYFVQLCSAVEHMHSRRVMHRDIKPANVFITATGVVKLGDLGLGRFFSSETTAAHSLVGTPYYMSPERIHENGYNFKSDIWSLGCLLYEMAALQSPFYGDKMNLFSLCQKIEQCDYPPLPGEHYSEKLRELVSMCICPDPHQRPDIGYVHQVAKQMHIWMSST
Chain of JNK1 (P45983 whole entry, species assumed): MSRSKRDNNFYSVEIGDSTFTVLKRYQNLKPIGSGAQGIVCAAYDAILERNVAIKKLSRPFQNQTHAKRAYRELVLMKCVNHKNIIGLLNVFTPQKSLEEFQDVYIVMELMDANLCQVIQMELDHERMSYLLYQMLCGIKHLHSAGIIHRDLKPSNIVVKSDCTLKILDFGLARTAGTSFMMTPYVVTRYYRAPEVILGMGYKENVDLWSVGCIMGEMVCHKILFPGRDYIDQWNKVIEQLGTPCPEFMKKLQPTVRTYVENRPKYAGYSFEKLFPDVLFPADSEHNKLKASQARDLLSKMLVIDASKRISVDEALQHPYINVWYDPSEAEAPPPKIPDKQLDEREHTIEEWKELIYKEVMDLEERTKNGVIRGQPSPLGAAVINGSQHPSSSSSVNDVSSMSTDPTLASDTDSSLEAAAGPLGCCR

COC(=O)c1cccc(C(=O)Nc2nc3ccc(F)cc3s2)c1 [Compound 03-110]
residual kinase activity, JNK1 [1, 10]: 98 | residual kinase activity, ROCK 2 [2, 10]: 86 | residual kinase activity, PKCa [3, 10]: 109 | residual kinase activity, PKD1 [4, 10]: 88 | residual kinase activity, LKB1 [5, 10]: 92 | residual kinase activity, CK2 [6, 10]: 86 | residual kinase activity, NEK6 [7, 10]: 87 | residual kinase activity, PIM1 [8, 10]: 99 | residual kinase activity, PAK4 [9, 10]: 83

CC(=O)Nc1nc2ccc(F)cc2s1 [Compound 03-94]
residual kinase activity, JNK1 [1, 10]: 82 | residual kinase activity, ROCK 2 [2, 10]: 70 | residual kinase activity, PKCa [3, 10]: 98 | residual kinase activity, PKD1 [4, 10]: 105 | residual kinase activity, LKB1 [5, 10]: 46 | residual kinase activity, CK2 [6, 10]: 91 | residual kinase activity, NEK6 [7, 10]: 92 | residual kinase activity, PIM1 [8, 10]: 40 | residual kinase activity, PAK4 [9, 10]: 66

COc1cccc(NC(=O)Nc2nc3cc(O)ccc3s2)c1 [Compound 13-62]
residual kinase activity, JNK1 [1, 11]: 114 | residual kinase activity, ROCK 2 [2, 11]: 11 | residual kinase activity, PKCa [3, 11]: 102 | residual kinase activity, PKD1 [4, 11]: 41 | residual kinase activity, LKB1 [5, 11]: 91 | residual kinase activity, CK2 [6, 11]: 24 | residual kinase activity, NEK6 [7, 11]: 104 | residual kinase activity, PIM1 [8, 11]: 14 | residual kinase activity, PAK4 [9, 11]: 22

COc1ccc2sc(NC(=O)c3cccc(C(N)=O)c3)nc2c1 [Compound 03-113]
residual kinase activity, JNK1 [1, 10]: 86 | residual kinase activity, ROCK 2 [2, 10]: 68 | residual kinase activity, PKCa [3, 10]: 103 | residual kinase activity, PKD1 [4, 10]: 110 | residual kinase activity, LKB1 [5, 10]: 95 | residual kinase activity, CK2 [6, 10]: 46 | residual kinase activity, NEK6 [7, 10]: 99 | residual kinase activity, PIM1 [8, 10]: 50 | residual kinase activity, PAK4 [9, 10]: 109

COC(=O)c1cccc(C(=O)Nc2nc3ccc(C(F)(F)F)cc3s2)c1 [Compound 03-105, Methyl 3-((6-(trifluoromethyl)benzo[d]thiazol-2-yl)carbamoyl)benzoate]
remaining activity at 100 µM [1]: 84% | remaining activity at 100 µM [2]: 103% | remaining activity at 100 µM [3]: 96% | remaining activity at 100 µM [4]: 90% | remaining activity at 100 µM [5]: 91% | residual kinase activity, CK2 [6, 10]: 89 | remaining activity at 100 µM [7]: 90% | remaining activity at 100 µM [8]: 72% | remaining activity at 100 µM [9]: 89%

O=C(Nc1nc2cc(O)ccc2s1)c1ccccc1 [Compound 03-102]
residual kinase activity, JNK1 [1, 10]: 83 | residual kinase activity, ROCK 2 [2, 10]: 47 | residual kinase activity, PKCa [3, 10]: 72 | residual kinase activity, PKD1 [4, 10]: 60 | residual kinase activity, LKB1 [5, 10]: 33 | residual kinase activity, CK2 [6, 10]: 75 | residual kinase activity, NEK6 [7, 10]: 112 | residual kinase activity, PIM1 [8, 10]: 14 | residual kinase activity, PAK4 [9, 10]: 67

COc1ccc2sc(NC(=O)c3ccccc3)nc2c1 [Compound 03-95]
residual kinase activity, JNK1 [1, 10]: 90 | residual kinase activity, ROCK 2 [2, 10]: 54 | residual kinase activity, PKCa [3, 10]: 53 | residual kinase activity, PKD1 [4, 10]: 92 | residual kinase activity, LKB1 [5, 10]: 72 | residual kinase activity, CK2 [6, 10]: 78 | residual kinase activity, NEK6 [7, 10]: 86 | residual kinase activity, PIM1 [8, 10]: 19 | residual kinase activity, PAK4 [9, 10]: 107

CC(=O)Nc1nc2ccc([N+](=O)[O-])cc2s1 [Compound 13-10]
remaining activity at 100 µM [1, 10]: 82% | remaining activity at 100 µM [2, 10]: 96% | remaining activity at 100 µM [3, 10]: 93% | remaining activity at 100 µM [4, 10]: 82% | remaining activity at 100 µM [5, 10]: 73% | residual kinase activity, CK2 [6, 10]: 51 | remaining activity at 100 µM [7, 10]: 92% | remaining activity at 100 µM [8, 10]: 81% | remaining activity at 100 µM [9, 10]: 86%

O=C(Nc1nc2ccc(C(F)(F)F)cc2s1)c1ccccc1 [Compound 03-99]
residual kinase activity, JNK1 [1, 10]: 86 | residual kinase activity, ROCK 2 [2, 10]: 97 | residual kinase activity, PKCa [3, 10]: 114 | residual kinase activity, PKD1 [4, 10]: 114 | residual kinase activity, LKB1 [5, 10]: 103 | residual kinase activity, CK2 [6, 10]: 80 | residual kinase activity, NEK6 [7, 10]: 94 | residual kinase activity, PIM1 [8, 10]: 78 | residual kinase activity, PAK4 [9, 10]: 154
